This note sets out measurements from patent publication US5811241A, “Method for preparing and identifying N-substitued 1,4-piperazines and N-substituted 1,4-piperazinediones” (Cortech, Inc., priority 1995, dated 1998).

The assay deals with T1, human BK2 receptor (Homo sapiens, UniProt P30411).
T1 construct: expressed in transfected cells; host or cells: CHO-K1 (ATCC)
T1 sequence (P30411 1-391): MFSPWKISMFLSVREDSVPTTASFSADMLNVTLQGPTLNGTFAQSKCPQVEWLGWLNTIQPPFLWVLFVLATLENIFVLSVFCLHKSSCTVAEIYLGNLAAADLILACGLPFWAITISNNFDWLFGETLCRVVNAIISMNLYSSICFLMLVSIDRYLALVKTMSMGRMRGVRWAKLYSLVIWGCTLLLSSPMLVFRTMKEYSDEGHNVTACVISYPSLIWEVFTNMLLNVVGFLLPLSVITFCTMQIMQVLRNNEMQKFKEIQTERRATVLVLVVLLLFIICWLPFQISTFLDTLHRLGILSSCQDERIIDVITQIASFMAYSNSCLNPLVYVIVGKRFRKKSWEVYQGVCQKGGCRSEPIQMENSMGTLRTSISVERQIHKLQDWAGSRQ
The experiment in a line: Bradykinin 2 human receptor clone binding assay (inhibition of radio-labeled bradykinin binding). The following applies: compound resynthesized in pure form, read-out: IC50, BK binding inhibition. How it is done: Bradykinin 2 and Bradykinin 1 Human Receptor Clone Binding Assays
Human bradykinin B2 receptor was expressed in CHO-K1 (ATCC) cells. Preparation of membranes for binding assay was carried out by scraping cells from roller bottles in ice cold PBS and centrifuging at 1000× g, at 4° C. for 15 minutes. The supernatant was discarded and pellet resuspended in Buffer A consisting of 25 mM TES (pH 6.8) with 2 uM 1,10-phenanthroline, and centrifuged at 27,000× g for 15 min. The pellet was washed once using the same buffer and centrifugation parameters. The final pellet was resuspended in Buffer B (Buffer A with 2 uM captopril, 140 ug/ml bacitracin, 0.1% BSA), and stored in 1 ml aliquot, frozen at -70° C. until needed.
B2 Binding assays were performed by incubating human clone membrane solution with ^3 H-bradykinin (final concentration 0.3 nM) with or without test compounds in assay buffer (Buffer B with 1 mM dithiothreitol), at room temperature, for 45 minutes, at a final volume of 315 ul. All test compound dilutions were done in triplicate. Assays were harvested by quick filtration in a Tomtec Harvester 96, with ice-cold wash buffer consisting of 10 mM Tris/HCl, pH 7.5, 100 mM NaCl,0.02% BSA, onto Wallec printed glassfiber Filtermat "B", which had been pre-soaked with 0.1% PEI and previously air-dried. Filtermats were counted in 9.5 ml Wallec Beta-Plate Scint, in Wallec 1450 MicroBeta Counter.

What is called IC50 is the concentration that inhibits the measured activity by half. For the compound `N=C(N)NCCCCCCN1CC(=O)N(Cc2ccc3ccccc3c2)C(C2Cc3ccccc3C2)C1=O` (racemic) [Example 60], the IC50 is 4.1 µM.
For `N=C(N)NCCCCCCCN1CC(=O)N(Cc2ccc(-c3ccccc3)cc2)C(C2Cc3ccccc3C2)C1=O` (racemic) [Example 61], the IC50 came out at 13 µM.
